Here are results for 8 compounds from PubChem BioAssay (NCI).

Several values for one entry are separate records, joined by “and”; a condition that tells them apart may be missing. Equal values may be shown once.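 Five compound concentrations were applied to cells in 96-well plates for 48 hours; endpoints were derived by simple linear interpolation of the resulting dose-response curve. GI50: concentration for 50% inhibition of growth. TGI is the concentration that stops growth completely.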

Test systems include MDA-MB-231 breast; OVCAR-3 ovarian; SW-620 colon; MCF7 breast; M14 melanoma; SNB-75 CNS; HCT-15 colon; SN12C renal; MDA-MB-435; SK-MEL-2 melanoma.
Holding throughout (assay): inhibition of tumour cell growth, NCI panel, 48 h

Regarding `COc1cc(C(=O)c2cnc(-c3cccc4[nH]ccc34)[nH]2)cc(OC)c1OC`, the TGI in the assay on MDA-MB-231 breast was 20.7 µM; in the assay with SW-620 colon it was > 100 µM; with MCF7 breast it was > 100 µM; in the assay on SNB-75 CNS it was > 100 µM; in the assay with HCT-15 colon it was > 100 µM; with SN12C renal, > 100 µM. Besides, the TGI in the assay on SK-MEL-2 melanoma turned out to be 36.1 µM. Moreover, the GI50 was 0.0366 µM and < 0.01 µM with OVCAR-3 ovarian; 0.059 µM and < 0.01 µM in the assay with MCF7 breast; 0.0505 µM and < 0.01 µM in the assay on M14 melanoma; 0.0295 µM and < 0.01 µM in the assay on SNB-75 CNS; 0.0915 µM and < 0.01 µM in the assay on HCT-15 colon; 0.0282 µM with MDA-MB-435. Further, the GI50 in the assay with SK-MEL-2 melanoma was < 0.01 µM.
As for `CCCCCCCCCCCCOC1C(CNC(=O)C2OC3OC(C)(C)OC3C2NC(=O)CN2CCN(c3ccc(OC)cc3)CC2)OC2OC(C)(C)OC21` (centres undefined), the GI50 is 5.65 µM with MDA-MB-231 breast; 4.01 µM in the assay on OVCAR-3 ovarian; 3.75 µM in the assay on SW-620 colon; 2.81 µM with MCF7 breast; 4.73 µM in the assay on M14 melanoma; 4.46 µM in the assay on SNB-75 CNS. In addition, the GI50 with HCT-15 colon was 3.53 µM; in the assay on SN12C renal, 3.41 µM; in the assay with MDA-MB-435 it was 5.12 µM; in the assay on SK-MEL-2 melanoma, 11.7 µM. Besides, the TGI in the assay on MDA-MB-231 breast amounted to 17.8 µM; in the assay with OVCAR-3 ovarian, 14.5 µM; in the assay with SW-620 colon, 28.3 µM; in the assay on MCF7 breast, 8.29 µM; in the assay on M14 melanoma, 18.9 µM; with SNB-75 CNS, 17.4 µM. In addition, the TGI in the assay on HCT-15 colon was 11.3 µM; with SN12C renal, 11.7 µM; in the assay on MDA-MB-435, 17.7 µM; with SK-MEL-2 melanoma it was 23.9 µM.
For the compound `COC(=O)c1oc2c(C(=O)/C=C/c3ccc(OC)cc3)c(OCCN(C)C)ccc2c1C`, the GI50 was 8.33 µM in the assay with MDA-MB-231 breast; 7.19 µM in the assay with OVCAR-3 ovarian; 2.4 µM in the assay with SW-620 colon; 2.98 µM with MCF7 breast; 10.6 µM in the assay on M14 melanoma; 9.94 µM in the assay on SNB-75 CNS. The GI50 in the assay with HCT-15 colon is 4.13 µM; with SN12C renal, 5.31 µM; with MDA-MB-435, 4.57 µM; in the assay on SK-MEL-2 melanoma it was 12.4 µM. The TGI was determined as 22.9 µM with MDA-MB-231 breast; 21.3 µM in the assay on OVCAR-3 ovarian; 7.43 µM in the assay on SW-620 colon; 9.89 µM in the assay with MCF7 breast; 25.5 µM in the assay with M14 melanoma; 22.2 µM in the assay on SNB-75 CNS. Further, the TGI in the assay on HCT-15 colon turned out to be 16.8 µM; in the assay with SN12C renal, 20.4 µM; with MDA-MB-435, 16.3 µM; with SK-MEL-2 melanoma, 28.8 µM.
On to `CCOc1ccn(-c2ccc(F)cc2)c(=O)c1C(=O)Nc1ccc(Oc2ccnc(N)c2Cl)c(F)c1`, for which the GI50 in the assay on MDA-MB-231 breast was 6.33 µM; in the assay with OVCAR-3 ovarian it was 24.3 µM; in the assay with SW-620 colon, 5.01 µM; with MCF7 breast it was 7.89 µM; in the assay on M14 melanoma, 3.74 µM; in the assay with SNB-75 CNS it was 2.39 µM. The GI50 was 10.6 µM with HCT-15 colon, 5.03 µM with SN12C renal, 6.27 µM in the assay with MDA-MB-435 and 14 µM with SK-MEL-2 melanoma. In addition, the TGI was 23.9 µM in the assay on MDA-MB-231 breast; > 100 µM with OVCAR-3 ovarian; 38.4 µM in the assay with SW-620 colon; > 100 µM with MCF7 breast; 16 µM in the assay with M14 melanoma; 22.5 µM in the assay on SNB-75 CNS. Moreover, the TGI in the assay on HCT-15 colon was > 79.6 µM; in the assay on SN12C renal, > 100 µM; in the assay with MDA-MB-435 it was 42.6 µM; in the assay on SK-MEL-2 melanoma, 35.7 µM.
On to `CCOC(=O)C(C#N)C1=CC(=O)C(=O)c2ccc(O)cc21` (centres undefined), for which the TGI was > 100 µM in the assay on MDA-MB-231 breast; > 100 µM in the assay with OVCAR-3 ovarian; > 100 µM in the assay with SW-620 colon; > 100 µM in the assay on MCF7 breast; 51.3 µM in the assay with M14 melanoma; > 100 µM in the assay with SNB-75 CNS. Further, the TGI was > 100 µM in the assay with HCT-15 colon, > 100 µM in the assay on SN12C renal, 39.9 µM in the assay with MDA-MB-435 and > 100 µM in the assay with SK-MEL-2 melanoma.
In the case of `CCc1nc2ccc(N=Nc3c(O)ccc4ccccc34)cc2[nH]1`, the TGI is 49.5 µM in the assay with MDA-MB-231 breast; 37.2 µM in the assay with OVCAR-3 ovarian; 54.4 µM with SW-620 colon; 42.2 µM in the assay on MCF7 breast; 35.1 µM in the assay on M14 melanoma; 37.5 µM in the assay on SNB-75 CNS. Moreover, the TGI turned out to be 33.4 µM with HCT-15 colon, 38.2 µM in the assay with SN12C renal, 67.5 µM in the assay with MDA-MB-435 and 37.9 µM in the assay on SK-MEL-2 melanoma.
Consider `Cc1cc(Nc2cc(N3CCN(C)CC3)nc(/C=C/c3ccccc3)n2)n[nH]1`, for which the GI50 in the assay on MDA-MB-231 breast was 0.966 µM; with OVCAR-3 ovarian it was 1.2 µM; with SW-620 colon, 0.294 µM; in the assay with MCF7 breast it was 0.235 µM; in the assay with M14 melanoma, 0.343 µM; with SNB-75 CNS, 0.391 µM. In addition, the GI50 was 0.326 µM in the assay on HCT-15 colon, 0.62 µM in the assay on SN12C renal, 0.406 µM in the assay with MDA-MB-435 and 0.702 µM in the assay on SK-MEL-2 melanoma. The TGI with MDA-MB-231 breast was 9.95 µM; in the assay on OVCAR-3 ovarian, > 10 µM; in the assay with SW-620 colon, > 10 µM; in the assay with MCF7 breast, > 7.88 µM; in the assay on M14 melanoma, > 3.81 µM; with SNB-75 CNS, 2.12 µM. For the same compound, the TGI was > 10 µM in the assay with HCT-15 colon, > 10 µM in the assay with SN12C renal, > 5.28 µM in the assay with MDA-MB-435 and > 2.39 µM in the assay with SK-MEL-2 melanoma.
In the case of `CC[C@@H](C)/C=C(C)/C=C/C(=O)c1c(O)c(-c2ccc(O)cc2)cn(O)c1=O`, the GI50 in the assay with MDA-MB-231 breast is 0.733 µM; with OVCAR-3 ovarian, 0.395 µM; in the assay with SW-620 colon it was 0.55 µM; with MCF7 breast, 0.365 µM; in the assay on M14 melanoma, 0.284 µM; in the assay on SNB-75 CNS, 1.38 µM. Further, the GI50 in the assay on HCT-15 colon was 0.396 µM; with SN12C renal, 0.391 µM; with MDA-MB-435 it was 0.468 µM; in the assay with SK-MEL-2 melanoma, 0.329 µM. The TGI is 23 µM in the assay with MDA-MB-231 breast; 13 µM in the assay with OVCAR-3 ovarian; 14 µM with SW-620 colon; 16.5 µM with MCF7 breast; 13.2 µM in the assay on M14 melanoma; 15.7 µM in the assay on SNB-75 CNS. Besides, the TGI was found to be 16.1 µM with HCT-15 colon, 12.3 µM with SN12C renal, 17.5 µM in the assay on MDA-MB-435 and 16.8 µM in the assay on SK-MEL-2 melanoma.
